# Measurements published in patent US20030022158A1, “Peptides from the TT virus sequence and monospecific antibodies binding to the TT virus” (priority 1999, published 2003).
# Assays:
# [1] = test system: human antibodies in human serum samples; assay: EIA reactivities of three human serum samples with deletion and alanine substitution analogues of SEQ ID NO: 1 (Table 6); format: binding; settings: positive = more than 50% of the reactivity of the original peptide
# Experimental: (§1) The EIAs used to identify which peptides interacted with human sera followed protocols known in the art. (See Zhang et al., J Gen Virol, 78:2735-2746 (1997), herein expressly incorporated by reference in its entirety). Briefly, microplates (Nunc, Denmark) were coated for 48 hours with synthetic peptides at a concentration of 10 μg/ml in 0.05M sodium carbonate buffer pH 9.6. After blocking for 2 hours at room temperature with phosphate buffered saline containing 1% bovine serum albumin, 2% goat serum and 0.05% Tween 20 (dilution buffer) the plates were incubated with human sera diluted 1:100 in dilution buffer. Bound human IgG was detected by incubation with anti-human IgG antibodies conjugated to alkaline phosphatase (Sigma Chemicals, St. Louis, Mo.). The plates were developed by the addition of […] (Sigma) and the optical densities were determined at 405 nm.
# The reactivity to the TATTTTYAYPGTNRPPV (SEQ ID NO: 1) peptide was further characterized by mapping the reactivity of deletion and substitution peptide analogues.
# [2] = test system: human IgG antibodies in human serum samples; assay: EIA of human antibody reactivities to overlapping synthetic peptides of TTV ORF1 and ORF2 (Tables 2 and 3); format: binding; settings: for optical density (OD) at 405 nm: serum diluted 1:100, OD over 0.500 considered positive; for optical density (OD) at 405 nm, EIA reactivity of human serum sample 1: serum sample 1, negative for TTV DNA by PCR; for optical density (OD) at 405 nm, EIA reactivity of human serum sample 1 / optical density (OD) at 405 nm, EIA reactivity of human serum sample 2 / optical density (OD) at 405 nm, EIA reactivity of human serum sample 3 / optical density (OD) at 405 nm, EIA reactivity of human serum sample 4 / optical density (OD) at 405 nm, EIA reactivity of human serum sample 5 / optical density (OD) at 405 nm, EIA reactivity of human serum sample 6 / optical density (OD) at 405 nm, EIA reactivity of human serum sample 7 / optical density (OD) at 405 nm, EIA reactivity of human serum sample 9 / optical density (OD) at 405 nm, EIA reactivity of human serum sample 11 / optical density (OD) at 405 nm, EIA reactivity of human serum sample 18 / optical density (OD) at 405 nm, EIA reactivity of human serum sample 36 / optical density (OD) at 405 nm, EIA reactivity of human serum sample 48 / optical density (OD) at 405 nm, EIA reactivity of human serum sample 98 / optical density (OD) at 405 nm, EIA reactivity of human serum sample 110 / optical density (OD) at 405 nm, EIA reactivity of human serum sample 155 / optical density (OD) at 405 nm, EIA reactivity of human serum sample 157: serum 1:100, peptide coated 10 μg/ml, OD over 0.500 positive; for optical density (OD) at 405 nm, EIA reactivity of human serum sample 2: serum sample 2, negative for TTV DNA by PCR; for optical density (OD) at 405 nm, EIA reactivity of human serum sample 3: serum sample 3, negative for TTV DNA by PCR; for optical density (OD) at 405 nm, EIA reactivity of human serum sample 4: serum sample 4, negative for TTV DNA by PCR; for optical density (OD) at 405 nm, EIA reactivity of human serum sample 5: serum sample 5, negative for TTV DNA by PCR; for optical density (OD) at 405 nm, EIA reactivity of human serum sample 6: serum sample 6, negative for TTV DNA by PCR; for optical density (OD) at 405 nm, EIA reactivity of human serum sample 7: serum sample 7, negative for TTV DNA by PCR; for optical density (OD) at 405 nm, EIA reactivity of human serum sample 9: serum sample 9, positive for TTV DNA by PCR; for optical density (OD) at 405 nm, EIA reactivity of human serum sample 11: serum sample 11, negative for TTV DNA by PCR; for optical density (OD) at 405 nm, EIA reactivity of human serum sample 18: serum sample 18, positive for TTV DNA by PCR; for optical density (OD) at 405 nm, EIA reactivity of human serum sample 36: serum sample 36, positive for TTV DNA by PCR; for optical density (OD) at 405 nm, EIA reactivity of human serum sample 48: serum sample 48, positive for TTV DNA by PCR; for optical density (OD) at 405 nm, EIA reactivity of human serum sample 98: serum sample 98, positive for TTV DNA by PCR; for optical density (OD) at 405 nm, EIA reactivity of human serum sample 110: serum sample 110, positive for TTV DNA by PCR; for optical density (OD) at 405 nm, EIA reactivity of human serum sample 155: serum sample 155, positive for TTV DNA by PCR; for optical density (OD) at 405 nm, EIA reactivity of human serum sample 157: serum sample 157, positive for TTV DNA by PCR
# From the text: Overlapping peptides (18 amino acids in length containing an 8 amino acid overlap) corresponding to regions of the ORFI and ORF2 of TTV (TABLE 1; Genebank accession no AB008394) were produced by a multiple peptide synthesizer (Syro, Syntex, Germany) using standard Fmoc chemistry (Sallberg et al., Immunology Letters, 30:59 68 (1991), herein expressly incorporated by reference in its entirety).
# as §1
# [3] = human serum sample 1, negative for TTV DNA by PCR
# [4] = human serum sample 2, negative for TTV DNA by PCR
# [5] = human serum sample 3, negative for TTV DNA by PCR
# [6] = human serum sample 4, negative for TTV DNA by PCR
# [7] = human serum sample 5, negative for TTV DNA by PCR
# [8] = human serum sample 6, negative for TTV DNA by PCR
# [9] = human serum sample 7, negative for TTV DNA by PCR
# [10] = human serum sample 9, positive for TTV DNA by PCR
# [11] = human serum sample 11, negative for TTV DNA by PCR
# [12] = human serum sample 18, positive for TTV DNA by PCR
# [13] = human serum sample 36, positive for TTV DNA by PCR
# [14] = human serum sample 48, positive for TTV DNA by PCR
# [15] = human serum sample 98, positive for TTV DNA by PCR
# [16] = human serum sample 110, positive for TTV DNA by PCR
# [17] = human serum sample 155, positive for TTV DNA by PCR
# [18] = human serum sample 157, positive for TTV DNA by PCR
Substance,"OD at 405 nm, reactivity of human serum sample P4 [1] [OD]","OD at 405 nm, reactivity of human serum sample P7 [1] [OD]","OD at 405 nm, reactivity of human serum sample P36 [1] [OD]","optical density (OD) at 405 nm [2, 3] [OD]","optical density (OD) at 405 nm [2, 4] [OD]","optical density (OD) at 405 nm [2, 5] [OD]","optical density (OD) at 405 nm [2, 6] [OD]","optical density (OD) at 405 nm [2, 7] [OD]","optical density (OD) at 405 nm [2, 8] [OD]","optical density (OD) at 405 nm [2, 9] [OD]","optical density (OD) at 405 nm [2, 10] [OD]","optical density (OD) at 405 nm [2, 11] [OD]","optical density (OD) at 405 nm [2, 12] [OD]","optical density (OD) at 405 nm [2, 13] [OD]","optical density (OD) at 405 nm [2, 14] [OD]","optical density (OD) at 405 nm [2, 15] [OD]","optical density (OD) at 405 nm [2, 16] [OD]","optical density (OD) at 405 nm [2, 17] [OD]","optical density (OD) at 405 nm [2, 18] [OD]","optical density (OD) at 405 nm, EIA reactivity of human serum sample 1 [2] [OD]",further results
2: overlapping synthetic peptide of TTV ORF1 (YAYPGTNRPPV) [compound 2],0.647,1.546,0.677,0.08,0.08,0.07,0.11,0.07,0.09,0.08,0.07,0.14,0.06,0.08,0.10,0.05,0.08,0.07,0.08,0.10,"optical density (OD) at 405 nm, EIA reactivity of human serum sample 2 [2]: 0.11 OD; optical density (OD) at 405 nm, EIA reactivity of human serum sample 3 [2]: 0.11 OD; optical density (OD) at 405 nm, EIA reactivity of human serum sample 4 [2]: 0.10 OD; optical density (OD) at 405 nm, EIA reactivity of human serum sample 5 [2]: 0.08 OD; optical density (OD) at 405 nm, EIA reactivity of human serum sample 6 [2]: 0.12 OD; optical density (OD) at 405 nm, EIA reactivity of human serum sample 7 [2]: 0.09 OD; optical density (OD) at 405 nm, EIA reactivity of human serum sample 9 [2]: 0.08 OD; optical density (OD) at 405 nm, EIA reactivity of human serum sample 11 [2]: 0.14 OD; optical density (OD) at 405 nm, EIA reactivity of human serum sample 18 [2]: 0.08 OD; optical density (OD) at 405 nm, EIA reactivity of human serum sample 36 [2]: 0.08 OD; optical density (OD) at 405 nm, EIA reactivity of human serum sample 48 [2]: 0.08 OD; optical density (OD) at 405 nm, EIA reactivity of human serum sample 98 [2]: 0.08 OD; optical density (OD) at 405 nm, EIA reactivity of human serum sample 110 [2]: 0.09 OD; optical density (OD) at 405 nm, EIA reactivity of human serum sample 155 [2]: 0.14 OD; optical density (OD) at 405 nm, EIA reactivity of human serum sample 157 [2]: 0.13 OD"
20: overlapping synthetic peptide of TTV ORF1 (TATTTTYAYPGTNRPP) [compound 20],0.096,0.144,0.086,0.07,0.06,0.06,0.07,0.06,0.08,0.08,0.08,0.11,0.07,0.07,0.09,0.04,0.06,0.09,0.10,0.09,"optical density (OD) at 405 nm, EIA reactivity of human serum sample 2 [2]: 0.10 OD; optical density (OD) at 405 nm, EIA reactivity of human serum sample 3 [2]: 0.09 OD; optical density (OD) at 405 nm, EIA reactivity of human serum sample 4 [2]: 0.08 OD; optical density (OD) at 405 nm, EIA reactivity of human serum sample 5 [2]: 0.07 OD; optical density (OD) at 405 nm, EIA reactivity of human serum sample 6 [2]: 0.10 OD; optical density (OD) at 405 nm, EIA reactivity of human serum sample 7 [2]: 0.07 OD; optical density (OD) at 405 nm, EIA reactivity of human serum sample 9 [2]: 0.10 OD; optical density (OD) at 405 nm, EIA reactivity of human serum sample 11 [2]: 0.09 OD; optical density (OD) at 405 nm, EIA reactivity of human serum sample 18 [2]: 0.10 OD; optical density (OD) at 405 nm, EIA reactivity of human serum sample 36 [2]: 0.08 OD; optical density (OD) at 405 nm, EIA reactivity of human serum sample 48 [2]: 0.08 OD; optical density (OD) at 405 nm, EIA reactivity of human serum sample 98 [2]: 0.08 OD; optical density (OD) at 405 nm, EIA reactivity of human serum sample 110 [2]: 0.10 OD; optical density (OD) at 405 nm, EIA reactivity of human serum sample 155 [2]: 0.14 OD; optical density (OD) at 405 nm, EIA reactivity of human serum sample 157 [2]: 0.16 OD"
21: overlapping synthetic peptide of TTV ORF1 (TATTTTYAYPGTNRP) [compound 21],0.100,0.099,0.078,0.00,0.00,0.00,0.00,0.00,0.00,0.00,0.00,0.00,0.00,0.00,0.00,0.00,0.00,0.00,0.00,–,–
22: overlapping synthetic peptide of TTV ORF1 (TATTTTYAYPGTNR) [compound 22],0.092,0.103,0.078,0.07,0.07,0.07,0.08,0.08,0.09,0.09,0.08,0.11,0.07,0.08,0.10,0.04,0.07,0.11,0.11,–,–
